We go through 20 compounds from paper PMC4506529 (Chemmedchem, 2014).

Experiment [1] addresses human C-terminal DNMT3A (a.a. 623-908) (Homo sapiens, UniProt Q9Y6K1). The experiment can be described thus: DNMT3A restriction-based fluorescence enzyme inhibition assay. It is filed as biochemical. Conditions: for inhibition at 20 µM / inhibition at 10 µM / inhibition at 32 µM: read-out: Inhibition [%] of DNMT3A catalytic activity; for Inhibition [%] of DNMT3A catalytic activity: mean±SEM where given, otherwise single determination.

The next experiment has as its target hDNMT1 (Homo sapiens, UniProt P26358). Put plainly: DNMT1 [methyl-3H]SAM FlashPlate assay. It is filed as biochemical.
For experiment [2], the target named is T1, histone lysine methyltransferases G9a (Homo sapiens, UniProt Q96KQ7).
T1 sequence (Q96KQ7 1-1210): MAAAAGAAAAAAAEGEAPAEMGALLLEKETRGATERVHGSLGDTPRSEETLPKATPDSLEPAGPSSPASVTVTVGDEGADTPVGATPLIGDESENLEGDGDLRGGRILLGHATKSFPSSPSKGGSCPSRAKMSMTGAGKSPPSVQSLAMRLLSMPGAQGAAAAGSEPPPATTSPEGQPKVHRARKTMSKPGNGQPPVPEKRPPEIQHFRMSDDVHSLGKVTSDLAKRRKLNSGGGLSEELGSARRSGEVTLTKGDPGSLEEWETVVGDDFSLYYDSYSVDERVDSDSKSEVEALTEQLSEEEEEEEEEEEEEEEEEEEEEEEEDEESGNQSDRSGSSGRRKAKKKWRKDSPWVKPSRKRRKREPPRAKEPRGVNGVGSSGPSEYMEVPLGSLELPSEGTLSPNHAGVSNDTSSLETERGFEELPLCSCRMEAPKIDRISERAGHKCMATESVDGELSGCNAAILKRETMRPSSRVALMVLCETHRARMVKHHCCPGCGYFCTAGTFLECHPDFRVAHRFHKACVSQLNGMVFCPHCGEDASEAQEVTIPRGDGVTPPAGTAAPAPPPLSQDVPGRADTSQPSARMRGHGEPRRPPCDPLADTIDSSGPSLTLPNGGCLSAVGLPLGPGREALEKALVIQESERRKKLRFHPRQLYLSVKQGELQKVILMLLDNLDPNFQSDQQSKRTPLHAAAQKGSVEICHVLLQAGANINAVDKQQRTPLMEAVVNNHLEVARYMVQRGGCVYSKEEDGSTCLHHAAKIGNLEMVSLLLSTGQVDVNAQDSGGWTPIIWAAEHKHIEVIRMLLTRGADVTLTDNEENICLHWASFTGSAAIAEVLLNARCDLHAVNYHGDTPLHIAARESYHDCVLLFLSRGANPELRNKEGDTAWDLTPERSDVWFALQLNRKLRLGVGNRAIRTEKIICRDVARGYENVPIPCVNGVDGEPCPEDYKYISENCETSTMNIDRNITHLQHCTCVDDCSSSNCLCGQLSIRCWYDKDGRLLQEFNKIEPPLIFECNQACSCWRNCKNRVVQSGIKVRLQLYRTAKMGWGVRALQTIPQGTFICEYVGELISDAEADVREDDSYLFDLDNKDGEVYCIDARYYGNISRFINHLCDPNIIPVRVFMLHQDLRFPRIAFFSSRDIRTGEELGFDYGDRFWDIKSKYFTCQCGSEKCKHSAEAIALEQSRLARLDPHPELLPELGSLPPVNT
Put plainly: G9A inhibition assay. It is filed as biochemical.

Experiment [3] deals with luciferase reporter under control of methylated CMV promoter in KG-1 cells. The experiment can be described thus: CMV-luc reexpression in KG-1 cells. It is filed as cell-based, human. Conditions: 24 h; for Fold reactivation of luciferase (CMV-luc): vs untreated cells, mean±SEM.
Another experiment deals with DNMT1. Particulars: compared with SGI-1027; cited from earlier work.

Sequence of human C-terminal DNMT3A (a.a. 623-908) (Q9Y6K1 627-912): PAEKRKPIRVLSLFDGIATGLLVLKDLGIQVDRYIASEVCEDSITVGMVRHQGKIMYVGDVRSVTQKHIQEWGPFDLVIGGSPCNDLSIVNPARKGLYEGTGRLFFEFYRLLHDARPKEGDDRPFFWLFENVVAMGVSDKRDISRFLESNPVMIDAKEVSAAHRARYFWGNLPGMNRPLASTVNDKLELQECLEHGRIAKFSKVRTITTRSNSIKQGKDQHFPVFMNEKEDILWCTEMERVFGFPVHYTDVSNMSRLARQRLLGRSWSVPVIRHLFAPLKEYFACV
Sequence of hDNMT1 (P26358 whole entry): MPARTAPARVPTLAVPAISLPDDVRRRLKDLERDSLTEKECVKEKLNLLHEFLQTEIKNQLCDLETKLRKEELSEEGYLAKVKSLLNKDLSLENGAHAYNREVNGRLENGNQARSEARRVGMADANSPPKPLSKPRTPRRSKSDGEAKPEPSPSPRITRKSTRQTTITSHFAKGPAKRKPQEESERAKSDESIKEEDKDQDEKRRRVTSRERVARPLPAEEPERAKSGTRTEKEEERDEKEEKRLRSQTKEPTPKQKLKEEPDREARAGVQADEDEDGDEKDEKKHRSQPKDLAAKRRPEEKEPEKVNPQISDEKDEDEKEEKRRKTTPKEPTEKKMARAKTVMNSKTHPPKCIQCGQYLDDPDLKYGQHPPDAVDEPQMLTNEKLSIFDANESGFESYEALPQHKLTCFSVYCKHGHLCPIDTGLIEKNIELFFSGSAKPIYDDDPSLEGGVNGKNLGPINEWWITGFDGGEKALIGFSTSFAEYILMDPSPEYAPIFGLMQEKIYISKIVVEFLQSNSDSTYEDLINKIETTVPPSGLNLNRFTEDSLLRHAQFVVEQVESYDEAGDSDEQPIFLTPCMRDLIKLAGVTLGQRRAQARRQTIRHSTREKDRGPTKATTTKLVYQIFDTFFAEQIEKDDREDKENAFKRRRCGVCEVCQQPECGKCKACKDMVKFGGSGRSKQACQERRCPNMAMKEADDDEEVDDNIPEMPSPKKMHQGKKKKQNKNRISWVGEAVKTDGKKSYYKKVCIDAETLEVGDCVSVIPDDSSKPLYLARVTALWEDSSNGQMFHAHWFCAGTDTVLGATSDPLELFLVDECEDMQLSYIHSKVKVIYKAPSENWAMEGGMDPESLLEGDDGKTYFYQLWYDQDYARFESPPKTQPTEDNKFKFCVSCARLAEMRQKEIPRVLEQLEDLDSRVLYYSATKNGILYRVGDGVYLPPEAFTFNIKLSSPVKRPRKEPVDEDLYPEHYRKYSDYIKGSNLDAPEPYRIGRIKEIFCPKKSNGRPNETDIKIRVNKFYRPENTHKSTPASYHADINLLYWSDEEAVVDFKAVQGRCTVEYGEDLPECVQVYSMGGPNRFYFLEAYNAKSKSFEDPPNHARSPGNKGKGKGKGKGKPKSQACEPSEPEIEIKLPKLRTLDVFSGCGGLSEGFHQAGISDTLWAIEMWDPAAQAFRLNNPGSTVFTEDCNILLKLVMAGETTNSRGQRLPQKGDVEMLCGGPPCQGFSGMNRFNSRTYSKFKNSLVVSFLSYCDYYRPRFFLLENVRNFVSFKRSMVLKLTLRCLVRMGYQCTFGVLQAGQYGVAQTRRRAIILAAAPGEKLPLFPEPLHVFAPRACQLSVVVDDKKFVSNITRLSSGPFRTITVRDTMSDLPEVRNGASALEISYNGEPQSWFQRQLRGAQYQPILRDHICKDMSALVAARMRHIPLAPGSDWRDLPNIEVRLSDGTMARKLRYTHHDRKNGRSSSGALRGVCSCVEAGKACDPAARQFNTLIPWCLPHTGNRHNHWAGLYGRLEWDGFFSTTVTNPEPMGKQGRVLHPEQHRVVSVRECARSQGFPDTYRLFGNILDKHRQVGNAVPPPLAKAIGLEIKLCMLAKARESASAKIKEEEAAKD

With `Cc1cc(Nc2ccc(NC(=O)c3ccc(N)cc3)cc2)nc(N)n1` [Compound 9, N-[4-(2-Amino-6-methylpyrimidin-4-ylamino)phenyl]-4-aminobenzamide], the inhibition at 20 µM in experiment [1] turned out to be 0%.

In the case of `O=C(Nc1ccc(Nc2ccnc3ccccc23)cc1)c1ccc(Nc2ccnc3ccccc23)cc1` [Compound 37, N-[4-(Quinolin-4-ylamino)phenyl]-4-(quinolin-4-ylamino)benzamide], in experiment [1], the inhibition at 10 µM came to 39% and the inhibition at 32 µM came to 29%.

As to `Cc1cc(Nc2ccc(NC(=O)c3ccc(Nc4ncnc5cc(F)ccc45)cc3)cc2)nc(N)n1` [Compound 15, N-[4-(2-Amino-6-methylpyrimidin-4-ylamino)phenyl]-4-(7-fluoroquinazolin-4-ylamino)benzamide], in experiment [1], the inhibition at 10 µM is 19% and the inhibition at 32 µM came out at 6%.

As for `O=C(Nc1ccc(Nc2ccnc3ccccc23)cc1)c1ccc(Nc2ccncc2)cc1` [Compound 31, N-[4-(Quinolin-4-ylamino)phenyl]-4-(pyridin-4-ylamino)benzamide], the EC50 in experiment [1] came to 0.9 µM; on hDNMT1, 15 ± 3 µM. In experiment [1] (maximal efficacy of the dose–response curve), the “efficacy of hDNMT3A inhibition” value turned out to be 90%. Further, in experiment [1], the inhibition at 10 µM was 73 ± 3%. Moreover, in experiment [1], the inhibition at 32 µM came out at 75 ± 8%. In addition, it took 28 ± 4 µM to reach half-maximal inhibition in experiment [2] (IC50). In addition, the “Fold reactivation of luciferase (CMV-luc)” value (“Fold reactivation” for short) in experiment [3] (0.1 μM) was 1.1±0.1 fold; in experiment [3] (0.32 μM), 1.3±0.2 fold; in experiment [3] (0.5 μM), 1.6±0.3 fold; in experiment [3] (1 μM), 2.0±0.2 fold; in experiment [3] (3.2 μM) it was 3.9±0.3 fold; in experiment [3] (5 μM), 3.9±0.1 fold. In addition, in experiment [3] (10 μM), the “Fold reactivation” value was 3.2±0.5 fold. Moreover, the “concentration from which luciferase expression was reactivated” value in experiment [3] is at least 1 µM.

For the compound `O=C(Nc1ccc(Nc2ccnc3ccccc23)cc1)c1ccc(Nc2cc(-c3ccccc3)nc3ccccc23)cc1` [Compound 33, N-[4-(Quinolin-4-ylamino)phenyl]-4-(2-phenylquinolin-4-ylamino)benzamide], in experiment [1], the inhibition at 10 µM was 29% and the inhibition at 32 µM is 46%.

For the compound `Nc1cc(Nc2ccc(C(=O)Nc3ccc(Nc4ccnc5ccccc45)cc3)cc2)nc(N)n1` [Compound 32, N-[4-(Quinolin-4-ylamino)phenyl]-4-(2,6-diaminopyrimidin-4-ylamino)benzamide], the “plateau of DNMT3A inhibition” value in experiment [1] (plateau between 32 and 1 μM, no dose–response curve (data not shown)) amounted to 50%. In experiment [1], the inhibition at 10 µM came out at 53 ± 8% and the inhibition at 32 µM came to 53 ± 13%.

On to `Cc1cc(Nc2ccc(NC(=O)c3ccc(Nc4ncnc5ccccc45)cc3)cc2)nc(N)n1` [Compound 14, N-[4-(2-Amino-6-methylpyrimidin-4-ylamino)phenyl]-4-(quinazolin-4-ylamino)benzamide], for which, in experiment [1], the inhibition at 10 µM stood at 25% and the inhibition at 32 µM worked out at 19%.

`Cc1cc(Nc2ccc(NC(=O)c3ccc(Nc4ncccn4)cc3)cc2)nc(N)n1` [Compound 11, N-[4-(2-Amino-6-methylpyrimidin-4-ylamino)-phenyl]-4-(pyrimidin-2-ylamino)benzamide]: in experiment [1], the inhibition at 10 µM worked out at 17% and the inhibition at 32 µM was determined as 65 ± 3%.

As to `Cc1cc(Nc2ccc(NC(=O)c3ccc(Nc4ccncc4)cc3)cc2)nc(N)n1` [Compound 10, N-[4-(2-Amino-6-methylpyrimidin-4-ylamino)phenyl]-4-(pyridin-4-ylamino)benzamide], in experiment [1], the midpoint of the response, the EC50, lay at 13 µM; the inhibition at 10 µM was found to be 32%; the inhibition at 32 µM worked out at 91 ± 4%.

On to `Cc1cc(Nc2ccc(NC(=O)c3ccc(Nc4cc(-c5ccccc5)nc5ccccc45)cc3)cc2)nc(N)n1` [Compound 16, N-[4-(2-Amino-6-methylpyrimidin-4-ylamino)phenyl]-4-(2-phenylquinolin-4-ylamino)benzamide], for which the response in experiment [1] was half-maximal at 1.6 µM (EC50). The inhibition at 10 µM in experiment [1] was found to be 81 ± 5%. In addition, the inhibition at 32 µM in experiment [1] was 55 ± 10%. The “Fold reactivation” value in experiment [3] (0.1 μM) was 1.0±0.1 fold; in experiment [3] (1 μM), 1.3±0.1 fold; in experiment [3] (3.2 μM) it was 5.5±1.3 fold; in experiment [3] (5 μM), 6.0±2.0 fold; in experiment [3] (10 μM) it was 6.1±2.7 fold.

As for “N-[4-(2-Amino-6-methylpyrimidin-4-ylamino)phenyl]-4-(pyridin-3-ylmethylamino)benzamide [Compound 24]”, the “Inhibition [%] of DNMT3A catalytic activity” value in experiment [1] (10 μM compound) worked out at 0%.

As for `COc1nc(Nc2ccc(C(=O)Nc3ccc(Nc4cc(C)nc(N)n4)cc3)cc2)nc(OC)n1` [Compound 13, N-[4-(2-Amino-6-methylpyrimidin-4-ylamino)phenyl]-4-(4,6-dimethoxy-1,3,5-triazin-2-ylamino)benzamide], in experiment [1], the inhibition at 10 µM was determined as 36% and the inhibition at 32 µM amounted to 35%.

Consider `O=C(Nc1ccc(Nc2ccncc2)cc1)c1ccc(Nc2ccncc2)cc1` [Compound 36, N-[4-(Pyridin-4-ylamino)phenyl]-4-(pyridin-4-ylamino)benzamide], for which, in experiment [1], the inhibition at 10 µM worked out at 18% and the inhibition at 32 µM worked out at 54 ± 5%.

Consider “N-[4-(2-Amino-6-methylpyrimidin-4-ylamino)-phenyl]-4-(pyridin-4-ylmethylamino)benzamide [Compound 25]”, for which the “Inhibition [%] of DNMT3A catalytic activity” value turned out to be 0% in experiment [1] (10 μM compound) and 4% in experiment [1] (32 μM compound).

Turning to `CNc1ccc(C(=O)Nc2ccc(Nc3cc(C)nc(N)n3)cc2)cc1` [Compound 23, N-[4-(2-Amino-6-methylpyrimidin-4-ylamino)phenyl]-4-(methylamino)benzamide], in experiment [1], the inhibition at 10 µM is 0% and the inhibition at 20 µM was determined as 0%.

Take `Cc1cc(Nc2ccc(C(=O)Nc3ccc(Nc4ccnc5ccccc45)cc3)cc2)nc(N)n1` [Compound 30, N-[4-(Quinolin-4-ylamino)phenyl]-4-(2-amino-6-methylpyrimidin-4-ylamino)benzamide]: in experiment [1], the inhibition at 10 µM amounted to 56 ± 11% and the inhibition at 32 µM amounted to 47 ± 1%. Further, the “DNMT1 degradation (in words)” value in the experiment with DNMT1 is recorded as “lower efficiency on DNMT1 degradation than SGI-1027”.

As to `Cc1cc(Nc2ccc(NC(=O)c3ccc([N+](=O)[O-])cc3)cc2)nc(N)n1` [Compound 8, N-[4-(2-Amino-6-methylpyrimidin-4-ylamino)phenyl]-4-nitrobenzamide], the inhibition at 20 µM in experiment [1] came to 1%.

Consider `Cc1cc(Nc2ccc(NC(=O)c3ccc(Nc4ccnc5ccccc45)cc3)cc2)nc(N)n1` [SGI-1027, N-(4-(2-amino-6-methylpyrimidin-4-ylamino)phenyl)-4-(quinolin-4-ylamino)benzamide, reference compound], for which, in experiment [1], the inhibition at 10 µM was found to be 74 ± 5% and the inhibition at 32 µM worked out at 76 ± 5%.

With `Cc1cc(Nc2ccc(NC(=O)c3ccc(Nc4ncnc5nc[nH]c45)cc3)cc2)nc(N)n1` [Compound 17, N-[4-(2-Amino-6-methylpyrimidin-4-ylamino)phenyl]-4-(7H-purin-6-ylamino)benzamide], in experiment [1], the inhibition at 10 µM worked out at 8% and the inhibition at 20 µM worked out at 3%.

Consider `O=C(Nc1ccc(Nc2c3ccccc3nc3ccccc23)cc1)c1ccc(Nc2c3ccccc3nc3ccccc23)cc1` [Compound 38, N-[4-(Acridin-9-ylamino)phenyl]-4-(acridin-9-ylamino)benzamide], for which, in experiment [1], the inhibition at 10 µM stood at 48 ± 8% and the inhibition at 32 µM turned out to be 62 ± 22%.
